Values of other authors, collected in patent US5973156A, “Piperidine and tetrahydropyridine derivatives” (Merck Sharp & Dome Ltd., priority 1995, dated 1999).

Legend:
[1] = system: human 5-HT1D.spsb.α and 5-HT1D.spsb.β receptor subtypes
[2] = humans, therapeutic doses

discrimination between the human 5-HT1D.spsb.α and 5-HT1D.spsb.β receptor subtypes [1]: barely discriminates
SMILES: CNS(=O)(=O)Cc1ccc2[nH]cc(CCN(C)C)c2c1 [sumatriptan]
adverse cardiovascular events [2]: certain adverse cardiovascular events
